Laboratory results taken from PubChem BioAssay (NCI).
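Growth conditions: 96-well plates. Treatment: test compound, 48 hours, 5 concentrations. Analysis: linear interpolation between bracketing concentrations; unreached endpoints set to highest concentration. TGI denotes the concentration required for complete inhibition of growth.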

Assays:
Test in all cases: growth of human tumour cells (NCI), 48 h
EKVX NSCLC = tested on: EKVX NSCLC
SK-MEL-2 melanoma = tested on: SK-MEL-2 melanoma
SNB-75 CNS = tested on: SNB-75 CNS
MCF7 breast = tested on: MCF7 breast
HCC-2998 colon = tested on: HCC-2998 colon
SR leukemia = tested on: SR leukemia
NCI-H522 lung = tested on: NCI-H522 lung
OVCAR-5 ovarian = tested on: OVCAR-5 ovarian
SK-OV-3 ovarian = tested on: SK-OV-3 ovarian
HCT-15 colon = tested on: HCT-15 colon
A498 renal = tested on: A498 renal
NCI/ADR-RES ovarian = tested on: NCI/ADR-RES ovarian
NCI-H23 lung = tested on: NCI-H23 lung
HOP-62 NSCLC = tested on: HOP-62 NSCLC
MOLT-4 leukemia = tested on: MOLT-4 leukemia
NCI-H226 lung = tested on: NCI-H226 lung
U251 CNS = tested on: U251 CNS
RXF 393 renal = tested on: RXF 393 renal
CAKI-1 renal = tested on: CAKI-1 renal
UACC-257 melanoma = tested on: UACC-257 melanoma
SN12C renal = tested on: SN12C renal
DU-145 prostate = tested on: DU-145 prostate
TK-10 renal = tested on: TK-10 renal
HT29 colon = tested on: HT29 colon
ACHN renal = tested on: ACHN renal
BT-549 breast = tested on: BT-549 breast
K-562 leukemia = tested on: K-562 leukemia
OVCAR-4 ovarian = tested on: OVCAR-4 ovarian
NCI-H460 lung = tested on: NCI-H460 lung
HOP-92 NSCLC = tested on: HOP-92 NSCLC
HCT-116 colon = tested on: HCT-116 colon
SF-268 CNS = tested on: SF-268 CNS
COLO 205 colon = tested on: COLO 205 colon
SK-MEL-28 melanoma = tested on: SK-MEL-28 melanoma
LOX IMVI melanoma = tested on: LOX IMVI melanoma
SW-620 colon = tested on: SW-620 colon
OVCAR-3 ovarian = tested on: OVCAR-3 ovarian
SNB-19 CNS = tested on: SNB-19 CNS
A549 NSCLC = tested on: A549 NSCLC
T-47D breast = tested on: T-47D breast
UO-31 renal = tested on: UO-31 renal
HS 578T breast = tested on: HS 578T breast
MALME-3M melanoma = tested on: MALME-3M melanoma
MDA-MB-231 breast = tested on: MDA-MB-231 breast
CCRF-CEM leukemia = tested on: CCRF-CEM leukemia
786-0 renal = tested on: 786-0 renal
SK-MEL-5 melanoma = tested on: SK-MEL-5 melanoma
M14 melanoma = tested on: M14 melanoma
SF-295 CNS = tested on: SF-295 CNS
RPMI-8226 leukemia = tested on: RPMI-8226 leukemia
MDA-MB-435 = tested on: MDA-MB-435
OVCAR-8 ovarian = tested on: OVCAR-8 ovarian
IGROV1 ovarian = tested on: IGROV1 ovarian
UACC-62 melanoma = tested on: UACC-62 melanoma
KM12 colon = tested on: KM12 colon
HL-60(TB) leukemia = tested on: HL-60(TB) leukemia
PC-3 prostate = tested on: PC-3 prostate

`COc1ccc(N2C(=O)C3c4[nH]c5ccc(C)cc5c4C4CCC(c5ccccc5)CC4C3C2=O)cc1` (configuration not stated) gave a TGI (EKVX NSCLC) greater than 100 µM, a TGI (SK-MEL-2 melanoma) greater than 69.4 µM and a TGI (SNB-75 CNS) of 12 µM. The TGI (MCF7 breast) was greater than 100 µM, the TGI (HCC-2998 colon) was greater than 100 µM and the TGI (SR leukemia) was 23.6 µM. For the same compound, the TGI (NCI-H522 lung) was greater than 100 µM, the TGI (OVCAR-5 ovarian) was greater than 100 µM and the TGI (SK-OV-3 ovarian) was greater than 100 µM. The TGI (HCT-15 colon) was greater than 100 µM, the TGI (A498 renal) was greater than 68.8 µM and the TGI (NCI/ADR-RES ovarian) was greater than 100 µM. The TGI (NCI-H23 lung) was greater than 100 µM, the TGI (HOP-62 NSCLC) was 26.8 µM and the TGI (MOLT-4 leukemia) was greater than 100 µM. The TGI (NCI-H226 lung) was greater than 100 µM, the TGI (U251 CNS) was 98.6 µM and the TGI (RXF 393 renal) was 41 µM. For the same compound, the TGI (CAKI-1 renal) was greater than 72.5 µM, the TGI (UACC-257 melanoma) was greater than 100 µM and the TGI (SN12C renal) was greater than 100 µM. It also gave a TGI (DU-145 prostate) greater than 100 µM, a TGI (TK-10 renal) greater than 75.3 µM and a TGI (HT29 colon) greater than 100 µM. For the same compound, the TGI (ACHN renal) was greater than 100 µM, the TGI (BT-549 breast) was greater than 100 µM and the TGI (K-562 leukemia) was 98.9 µM. The TGI (OVCAR-4 ovarian) was greater than 82.3 µM, the TGI (NCI-H460 lung) was greater than 100 µM and the TGI (HOP-92 NSCLC) was greater than 90.2 µM. The TGI (HCT-116 colon) was greater than 100 µM, the TGI (SF-268 CNS) was greater than 100 µM and the TGI (COLO 205 colon) was greater than 100 µM. It also gave a TGI (SK-MEL-28 melanoma) greater than 100 µM, a TGI (LOX IMVI melanoma) greater than 100 µM and a TGI (SW-620 colon) greater than 100 µM. It also gave a TGI (OVCAR-3 ovarian) greater than 100 µM, a TGI (SNB-19 CNS) greater than 66.5 µM and a TGI (A549 NSCLC) greater than 100 µM. It also gave a TGI (T-47D breast) greater than 100 µM, a TGI (UO-31 renal) greater than 100 µM and a TGI (HS 578T breast) greater than 73.4 µM. It also gave a TGI (MALME-3M melanoma) greater than 100 µM, a TGI (MDA-MB-231 breast) greater than 49.5 µM and a TGI (CCRF-CEM leukemia) greater than 55.5 µM. The TGI (786-0 renal) was greater than 62.2 µM, the TGI (SK-MEL-5 melanoma) was greater than 100 µM and the TGI (M14 melanoma) was greater than 100 µM. For the same compound, the TGI (SF-295 CNS) was greater than 100 µM, the TGI (RPMI-8226 leukemia) was greater than 100 µM and the TGI (MDA-MB-435) was greater than 100 µM. For the same compound, the TGI (OVCAR-8 ovarian) was greater than 83.9 µM, the TGI (IGROV1 ovarian) was greater than 100 µM and the TGI (UACC-62 melanoma) was greater than 79.5 µM. It also gave a TGI (KM12 colon) greater than 100 µM, a TGI (HL-60(TB) leukemia) greater than 100 µM and a TGI (PC-3 prostate) greater than 100 µM.
